Experimental data from the supplement of paper PMC13207355.
Counter-ions that a name gives are not always drawn.

What was measured:
Settings in all cases: exposure time: 72 h
E21 [1] = patient-derived glioblastoma stem cells of mesenchymal subtype; experiment: surviving fraction (nuclei count normalised to DMSO); higher = more cells surviving (less toxic)
E57 [2] = patient-derived glioblastoma stem cells of mesenchymal subtype; experiment: as above
FT3469 [3] = normal neural stem cell line; experiment: as above
E31 [4] = patient-derived glioblastoma stem cells of proneural subtype; experiment: as above
E28 [5] = patient-derived glioblastoma stem cells of classical subtype; experiment: as above
E13 [6] = patient-derived glioblastoma stem cells of classical subtype; experiment: as above
E34 [7] = patient-derived glioblastoma stem cells of proneural subtype; experiment: as above
E21 [8] = experiment: phenotypic distance (Euclidean, principal components) from DMSO controls (arbitrary units); higher = stronger morphological change
E57 [9] = experiment: as above
FT3469 [10] = experiment: as above
E31 [11] = experiment: as above
E28 [12] = experiment: as above
E13 [13] = experiment: as above
E34 [14] = experiment: as above
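Wherever phenotypic distance (Euclidean, principal components) from DMSO controls is given: cell Painting imaging in 384-well plates, CellProfiler features reduced to at least 20 principal components, Euclidean distance versus same-plate DMSO vehicle wells (0.1% v/v), median over six images per well.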
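Wherever surviving fraction (nuclei count normalised to DMSO) is given: nuclei counted by high-content imaging of Hoechst-stained cells in laminin-coated 384-well plates, relative to 0.1% DMSO vehicle wells, with staurosporine as cell-death control.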

COc1ccc2[nH]c([S+]([O-])Cc3ncc(C)c(OC)c3C)nc2c1 (stereo unspecified) [Omeprazole]
Settings	phenotypic distance	surviving fraction
E13 [6], 4.1 nM	–	1.05
E13 [6], 12.3 nM	–	0.938
E13 [6], 37 nM	–	0.905
E13 [6], 111.1 nM	–	1.03
E13 [6], 333.3 nM	–	0.869
E13 [6], 1000 nM	–	1
E13 [6], 3000 nM	–	0.867
E13 [13], 4.1 nM	1.1	–
E13 [13], 12.3 nM	0.755	–
E13 [13], 37 nM	3.51	–
E13 [13], 111.1 nM	0.567	–
E13 [13], 333.3 nM	0.654	–
E13 [13], 1000 nM	2.01	–
E13 [13], 3000 nM	2.52	–
E21 [1], 4.1 nM	–	0.918
E21 [1], 12.3 nM	–	0.928
E21 [1], 37 nM	–	1.02
E21 [1], 111.1 nM	–	0.96
E21 [1], 333.3 nM	–	0.928
E21 [1], 1000 nM	–	0.956
E21 [1], 3000 nM	–	0.943
E21 [8], 4.1 nM	0.405	–
E21 [8], 12.3 nM	0.66	–
E21 [8], 37 nM	0.543	–
E21 [8], 111.1 nM	0.648	–
E21 [8], 333.3 nM	0.808	–
E21 [8], 1000 nM	0.429	–
E21 [8], 3000 nM	0.519	–
E28 [5], 4.1 nM	–	0.929
E28 [5], 12.3 nM	–	1.07
E28 [5], 37 nM	–	1.08
E28 [5], 111.1 nM	–	1.01
E28 [5], 333.3 nM	–	0.973
E28 [5], 1000 nM	–	1.12
E28 [5], 3000 nM	–	1.07
E28 [12], 4.1 nM	0.44	–
E28 [12], 12.3 nM	0.413	–
E28 [12], 37 nM	0.667	–
E28 [12], 111.1 nM	0.895	–
E28 [12], 333.3 nM	0.743	–
E28 [12], 1000 nM	0.799	–
E28 [12], 3000 nM	0.723	–
E31 [4], 4.1 nM	–	0.952
E31 [4], 12.3 nM	–	1.04
E31 [4], 37 nM	–	1.03
E31 [4], 111.1 nM	–	0.985
E31 [4], 333.3 nM	–	1.06
E31 [4], 1000 nM	–	0.947
E31 [4], 3000 nM	–	0.777
E31 [11], 4.1 nM	0.572	–
E31 [11], 12.3 nM	0.759	–
E31 [11], 37 nM	0.563	–
E31 [11], 111.1 nM	0.747	–
E31 [11], 333.3 nM	0.837	–
E31 [11], 1000 nM	0.778	–
E31 [11], 3000 nM	0.726	–
E34 [7], 4.1 nM	–	1.02
E34 [7], 12.3 nM	–	1.19
E34 [7], 37 nM	–	1.12
E34 [7], 111.1 nM	–	0.869
E34 [7], 333.3 nM	–	0.988
E34 [7], 1000 nM	–	1.04
E34 [7], 3000 nM	–	0.988
E34 [14], 4.1 nM	1.17	–
E34 [14], 12.3 nM	0.774	–
E34 [14], 37 nM	1.1	–
E34 [14], 111.1 nM	0.579	–
E34 [14], 333.3 nM	1.09	–
E34 [14], 1000 nM	0.511	–
E34 [14], 3000 nM	0.693	–
E57 [2], 4.1 nM	–	1.08
E57 [2], 12.3 nM	–	0.963
E57 [2], 37 nM	–	0.934
E57 [2], 111.1 nM	–	0.99
E57 [2], 333.3 nM	–	0.91
E57 [2], 1000 nM	–	1.01
E57 [2], 3000 nM	–	0.926
E57 [9], 4.1 nM	0.551	–
E57 [9], 12.3 nM	0.53	–
E57 [9], 37 nM	0.343	–
E57 [9], 111.1 nM	0.729	–
E57 [9], 333.3 nM	0.596	–
E57 [9], 1000 nM	0.755	–
E57 [9], 3000 nM	1.11	–
FT3469 [3], 4.1 nM	–	0.946
FT3469 [3], 12.3 nM	–	1.04
FT3469 [3], 37 nM	–	1
FT3469 [3], 111.1 nM	–	0.823
FT3469 [3], 333.3 nM	–	1.04
FT3469 [3], 1000 nM	–	0.979
FT3469 [3], 3000 nM	–	0.976
FT3469 [10], 4.1 nM	0.923	–
FT3469 [10], 12.3 nM	0.698	–
FT3469 [10], 37 nM	0.685	–
FT3469 [10], 111.1 nM	1.14	–
FT3469 [10], 333.3 nM	0.549	–
FT3469 [10], 1000 nM	0.593	–
FT3469 [10], 3000 nM	0.772	–

NC1CCN(c2nc3c(cc2F)c(=O)c(C(=O)O)cn3-c2ccc(F)cc2F)C1 (stereo unspecified) [Tosufloxacin hydrochloride]
Settings	phenotypic distance	surviving fraction
E13 [6], 4.1 nM	–	0.947
E13 [6], 12.3 nM	–	1.13
E13 [6], 37 nM	–	0.977
E13 [6], 111.1 nM	–	1.05
E13 [6], 333.3 nM	–	1.01
E13 [6], 1000 nM	–	1
E13 [6], 3000 nM	–	1.04
E13 [13], 4.1 nM	0.747	–
E13 [13], 12.3 nM	0.689	–
E13 [13], 37 nM	0.471	–
E13 [13], 111.1 nM	0.593	–
E13 [13], 333.3 nM	0.883	–
E13 [13], 1000 nM	0.502	–
E13 [13], 3000 nM	0.704	–
E21 [1], 4.1 nM	–	0.969
E21 [1], 12.3 nM	–	1.06
E21 [1], 37 nM	–	1.02
E21 [1], 111.1 nM	–	0.964
E21 [1], 333.3 nM	–	0.988
E21 [1], 1000 nM	–	0.989
E21 [1], 3000 nM	–	0.906
E21 [8], 4.1 nM	0.748	–
E21 [8], 12.3 nM	0.836	–
E21 [8], 37 nM	0.56	–
E21 [8], 111.1 nM	0.309	–
E21 [8], 333.3 nM	0.495	–
E21 [8], 1000 nM	0.751	–
E21 [8], 3000 nM	0.725	–
E28 [5], 4.1 nM	–	0.969
E28 [5], 12.3 nM	–	1.18
E28 [5], 37 nM	–	0.9
E28 [5], 111.1 nM	–	1.12
E28 [5], 333.3 nM	–	0.975
E28 [5], 1000 nM	–	1.01
E28 [5], 3000 nM	–	0.898
E28 [12], 4.1 nM	3.44	–
E28 [12], 12.3 nM	0.615	–
E28 [12], 37 nM	0.624	–
E28 [12], 111.1 nM	0.684	–
E28 [12], 333.3 nM	0.493	–
E28 [12], 1000 nM	0.455	–
E28 [12], 3000 nM	0.886	–
E31 [4], 4.1 nM	–	0.78
E31 [4], 12.3 nM	–	0.861
E31 [4], 37 nM	–	0.987
E31 [4], 111.1 nM	–	0.892
E31 [4], 333.3 nM	–	1.06
E31 [4], 1000 nM	–	0.836
E31 [4], 3000 nM	–	0.849
E31 [11], 4.1 nM	0.809	–
E31 [11], 12.3 nM	0.633	–
E31 [11], 37 nM	0.706	–
E31 [11], 111.1 nM	0.608	–
E31 [11], 333.3 nM	0.538	–
E31 [11], 1000 nM	0.815	–
E31 [11], 3000 nM	0.521	–
E34 [7], 4.1 nM	–	0.948
E34 [7], 12.3 nM	–	0.869
E34 [7], 37 nM	–	0.977
E34 [7], 111.1 nM	–	0.985
E34 [7], 333.3 nM	–	0.916
E34 [7], 1000 nM	–	1.03
E34 [7], 3000 nM	–	0.856
E34 [14], 4.1 nM	0.608	–
E34 [14], 12.3 nM	0.861	–
E34 [14], 37 nM	0.802	–
E34 [14], 111.1 nM	0.784	–
E34 [14], 333.3 nM	0.625	–
E34 [14], 1000 nM	0.557	–
E34 [14], 3000 nM	0.971	–
E57 [2], 4.1 nM	–	1.03
E57 [2], 12.3 nM	–	1.03
E57 [2], 37 nM	–	1
E57 [2], 111.1 nM	–	1.06
E57 [2], 333.3 nM	–	0.946
E57 [2], 1000 nM	–	1.09
E57 [2], 3000 nM	–	0.903
E57 [9], 4.1 nM	0.751	–
E57 [9], 12.3 nM	0.527	–
E57 [9], 37 nM	0.691	–
E57 [9], 111.1 nM	0.438	–
E57 [9], 333.3 nM	0.382	–
E57 [9], 1000 nM	0.743	–
E57 [9], 3000 nM	0.801	–
FT3469 [3], 4.1 nM	–	0.927
FT3469 [3], 12.3 nM	–	0.952
FT3469 [3], 37 nM	–	1.13
FT3469 [3], 111.1 nM	–	0.908
FT3469 [3], 333.3 nM	–	0.964
FT3469 [3], 1000 nM	–	0.96
FT3469 [3], 3000 nM	–	0.913
FT3469 [10], 4.1 nM	0.676	–
FT3469 [10], 12.3 nM	0.401	–
FT3469 [10], 37 nM	0.584	–
FT3469 [10], 111.1 nM	0.591	–
FT3469 [10], 333.3 nM	3.26	–
FT3469 [10], 1000 nM	0.468	–
FT3469 [10], 3000 nM	0.933	–
